pIC50: −log10 of the molar value.
Legend:
human CYP11B1 = molecular target: T1, human CYP11B1 (Homo sapiens, UniProt P15538); assay: IC50 vs CYP11B1 by measurement of cortisol synthesis in V79 cells; format: cell-based; settings: V79 cells expressing human CYP11B1, 1500 nM RSS, cortisol HTRF
T1 construct: expressed in transfected cells
T1 sequence (P15538 25-503): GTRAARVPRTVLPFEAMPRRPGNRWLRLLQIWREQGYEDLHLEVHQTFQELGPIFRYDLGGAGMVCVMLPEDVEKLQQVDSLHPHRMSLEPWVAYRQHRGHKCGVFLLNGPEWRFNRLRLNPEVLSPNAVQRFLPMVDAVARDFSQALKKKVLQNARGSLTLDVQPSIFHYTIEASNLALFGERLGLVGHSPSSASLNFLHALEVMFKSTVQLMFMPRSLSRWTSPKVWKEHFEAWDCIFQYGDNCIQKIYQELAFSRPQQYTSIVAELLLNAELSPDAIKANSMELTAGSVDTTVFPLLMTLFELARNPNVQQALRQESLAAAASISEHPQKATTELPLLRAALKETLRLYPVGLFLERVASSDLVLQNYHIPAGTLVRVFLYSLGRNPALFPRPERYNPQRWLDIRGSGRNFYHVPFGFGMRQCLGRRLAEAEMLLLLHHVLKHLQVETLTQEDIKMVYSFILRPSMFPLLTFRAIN
Description: (§1) This assay was performed in a standard 384-well plate design using cultured V79 cells stably expressing human CYP11B1 or human CYP11B2. Test compounds at 10 concentrations (for example, 10000, 3333.3, 1111.1, 370.4, 123.5, 41.2, 13.7, 4.6, 1.5 and 0.5 nM) were added in 384-well plate after the cell-seeding procedure. The incubation substrate contains 1500 nM RSS for CYP11B1 assay/750 nM DOC for CYP11B2 assay. The Cortisol/Aldosterone production of cell culture supernatant was determined by Cortisol/Aldosterone HTRF kit after for about 15 hours incubation at RT (protect from light). IC50 (nM) values were calculated from the percent inhibition observed for each test compound at 10 concentrations.
(§2) The assay plate was read using Envision (Perkin Elmer, Waltham, Mass.) at 665 nm and 590 nm (using Filter Barcode of 217#, 205#; Mirror Barcode of 446#).
(§3) Data are analyzed using Assay Data Analyzer. All ratio data (665 nm/590 nm) are back calculated according to the standard curve, resulting in Cortisol/Aldosterone concentrations. IC50 (nM) values are reported as the Inflection Point (IP) of a four parameter fit of the titration data.
(§4) The following equation was used to calculate the % inhibition: % Activity=100×{1−(Sample_back calculated Cortisol/Aldosterone concentration−LC_back calculated Cortisol/Aldosterone concentration)/(HC_back calculated Cortisol/Aldosterone concentration−LC_back calculated Cortisol/Aldosterone concentration)} Curve Fitting: Four Parameter Logistic: […]

CYP3A4 = molecular target: T2, CYP3A4 (Homo sapiens, UniProt P08684); assay: Cocktail assay for CYPs in human liver microsomes, midazolam 1′-hydroxylation (3A4); format: biochemical; settings: 2 μM midazolam, 10 min at 37° C.
T2 construct: 0.1 mg/mL protein human liver microsomes (BD Gentest); tissue BD Gentest; host or cells: human liver microsomes
T2 sequence (P08684 whole entry): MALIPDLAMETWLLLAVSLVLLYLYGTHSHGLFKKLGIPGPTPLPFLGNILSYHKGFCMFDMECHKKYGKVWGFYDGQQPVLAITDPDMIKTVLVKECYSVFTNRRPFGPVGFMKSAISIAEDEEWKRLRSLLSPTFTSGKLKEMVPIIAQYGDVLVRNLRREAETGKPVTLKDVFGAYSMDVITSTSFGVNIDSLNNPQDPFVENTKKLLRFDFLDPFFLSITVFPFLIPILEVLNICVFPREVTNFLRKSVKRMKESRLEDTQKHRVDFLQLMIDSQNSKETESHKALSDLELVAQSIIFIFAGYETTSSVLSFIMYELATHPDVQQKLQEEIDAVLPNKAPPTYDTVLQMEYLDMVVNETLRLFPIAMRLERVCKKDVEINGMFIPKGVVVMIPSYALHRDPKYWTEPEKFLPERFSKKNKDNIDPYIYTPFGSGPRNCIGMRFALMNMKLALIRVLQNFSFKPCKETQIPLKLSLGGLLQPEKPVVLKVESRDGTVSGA
Description: (§5) This assay was performed in a standard 96-well plate design. IC50 values were calculated from the percent inhibition observed for each test compound at 6 concentrations (for example, 0.0032, 0.016, 0.08, 0.4, 2 and 10 μM). The incubation substrate mix contains 10 μM phenacetin (1A2), 5 μM diclofenac (2C9), 30 μM mephenytoin (2C19), 5 μM dextromethorphan (2D6) and 2 μM midazolam (3A4), 0.1 mg/mL protein human liver microsomes (BD Gentest), 1 mM NAPDH, 3.3 mM MgCl2 and 100 mM potassium phosphate buffer (pH 7.4). The production of the metabolite of each probe substrate was determined after incubation for 10 min at 37° C. Quantitation of the metabolite peak area ratio against an internal standard (tolbutamide) was determined by LC/MS/MS analysis following acetonitrile treatment of the incubations.
(§6) Samples were analyzed in the MRM mode with a SCIEX API-4000 mass spectrometer (Applied Biosystems, Foster City, Calif.), with a Shimadzu LC-20 AD pump (Shimadzu corporation, Kyoto, JP) and a CTC PAL autosampler (Agilent Technologies, Switzerland). A Phenomenex, Luna, 5 μm, 100A, 2.00×30 mm HPLC column was used for the separation. The mobile phases were: (A) 0.1% formic acid in water and (B) 0.1% formic acid in acetonitrile. The binary gradient was as follows. AutoSampler: CTC PAL
(§7) The peak area ratio of the analyte to the internal standard was used to quantify the metabolite. The values of peak area ratios in the presence of test compound were compared to those of maximum or minimum controls and were expressed as % inhibition by interpolating between the maximum and minimum peak area ratios. Incubations with no inhibitor were defined as the maxima. The following equation was used to calculate the % inhibition: [1−[(X−Low control)/(High control−Low control)]]*100 For the IC50 calculation, SigmaPlot was used to plot the mean % inhibition versus the test compound concentrations and for non-linear regression analysis of the data. Depending on the range of data points defining the inhibition curve, the data may have been fit to the 4-parameter logistic equation.

human CYP11B2 = molecular target: T3, human CYP11B2 (Homo sapiens, UniProt P19099); assay: IC50 vs CYP11B2 by measurement of aldosterone synthesis in V79 cells; format: cell-based; settings: V79 cells expressing human CYP11B2, 750 nM DOC, aldosterone HTRF
T3 construct: expressed in transfected cells
T3 sequence (P19099 25-503): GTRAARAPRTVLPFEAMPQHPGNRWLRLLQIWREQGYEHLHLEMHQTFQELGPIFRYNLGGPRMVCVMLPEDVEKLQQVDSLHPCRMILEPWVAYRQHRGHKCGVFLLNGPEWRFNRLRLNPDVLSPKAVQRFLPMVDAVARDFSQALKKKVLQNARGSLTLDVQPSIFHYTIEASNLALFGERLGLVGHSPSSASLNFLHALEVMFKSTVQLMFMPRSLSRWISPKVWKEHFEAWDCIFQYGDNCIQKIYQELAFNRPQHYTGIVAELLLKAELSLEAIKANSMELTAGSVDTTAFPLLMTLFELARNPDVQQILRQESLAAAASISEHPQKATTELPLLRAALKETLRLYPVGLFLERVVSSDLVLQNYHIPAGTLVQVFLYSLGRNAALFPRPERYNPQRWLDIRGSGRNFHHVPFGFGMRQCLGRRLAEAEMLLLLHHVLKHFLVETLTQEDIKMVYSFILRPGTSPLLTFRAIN
Description: as §1, §2, §3, §4

CYP2D6 = molecular target: T4, CYP2D6 (Homo sapiens, UniProt P10635); assay: Cocktail assay for CYPs in human liver microsomes, dextromethorphan O-demethylation (2D6); format: biochemical; settings: 5 μM dextromethorphan, 10 min at 37° C.
T4 construct: 0.1 mg/mL protein human liver microsomes (BD Gentest); tissue BD Gentest; host or cells: human liver microsomes
T4 sequence (P10635 whole entry): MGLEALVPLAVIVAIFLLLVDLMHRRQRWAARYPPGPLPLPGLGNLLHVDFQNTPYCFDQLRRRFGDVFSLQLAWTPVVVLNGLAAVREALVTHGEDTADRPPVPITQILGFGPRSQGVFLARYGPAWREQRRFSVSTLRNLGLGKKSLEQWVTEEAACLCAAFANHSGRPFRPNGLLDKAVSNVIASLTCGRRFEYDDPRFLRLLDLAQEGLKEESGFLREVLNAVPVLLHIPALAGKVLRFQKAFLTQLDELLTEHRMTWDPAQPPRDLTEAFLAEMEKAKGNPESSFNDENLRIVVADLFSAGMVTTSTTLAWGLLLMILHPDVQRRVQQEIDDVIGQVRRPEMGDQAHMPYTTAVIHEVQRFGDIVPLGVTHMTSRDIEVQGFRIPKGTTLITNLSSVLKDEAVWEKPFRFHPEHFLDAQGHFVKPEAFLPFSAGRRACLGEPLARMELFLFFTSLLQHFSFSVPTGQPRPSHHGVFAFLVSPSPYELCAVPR
Description: as §5, §6, §7

CYP2C9 = molecular target: T5, CYP2C9 (Homo sapiens, UniProt P11712); assay: Cocktail assay for CYPs in human liver microsomes, diclofenac 4′-hydroxylation (2C9); format: biochemical; settings: 5 μM diclofenac, 10 min at 37° C.
T5 construct: 0.1 mg/mL protein human liver microsomes (BD Gentest); tissue BD Gentest; host or cells: human liver microsomes
T5 sequence (P11712 whole entry): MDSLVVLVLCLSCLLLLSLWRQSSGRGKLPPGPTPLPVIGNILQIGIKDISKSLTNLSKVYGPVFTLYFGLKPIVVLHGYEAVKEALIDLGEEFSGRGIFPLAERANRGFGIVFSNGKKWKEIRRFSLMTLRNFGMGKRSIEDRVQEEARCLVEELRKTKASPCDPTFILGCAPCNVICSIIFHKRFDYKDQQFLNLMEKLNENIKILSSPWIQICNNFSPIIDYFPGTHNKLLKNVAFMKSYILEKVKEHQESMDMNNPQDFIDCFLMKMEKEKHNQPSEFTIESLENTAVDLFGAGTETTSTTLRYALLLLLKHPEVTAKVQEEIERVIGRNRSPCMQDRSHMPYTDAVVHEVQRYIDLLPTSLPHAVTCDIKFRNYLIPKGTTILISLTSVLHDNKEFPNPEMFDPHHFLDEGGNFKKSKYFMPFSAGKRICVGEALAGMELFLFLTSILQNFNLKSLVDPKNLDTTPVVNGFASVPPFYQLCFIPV
Description: as §5, §6, §7

CYP2C19 = molecular target: T6, CYP2C19 (Homo sapiens, UniProt P33261); assay: Cocktail assay for CYPs in human liver microsomes, mephenytoin 4′-hydroxylation (2C19); format: biochemical; settings: 30 μM mephenytoin, 10 min at 37° C.
T6 construct: 0.1 mg/mL protein human liver microsomes (BD Gentest); tissue BD Gentest; host or cells: human liver microsomes
T6 sequence (P33261 whole entry): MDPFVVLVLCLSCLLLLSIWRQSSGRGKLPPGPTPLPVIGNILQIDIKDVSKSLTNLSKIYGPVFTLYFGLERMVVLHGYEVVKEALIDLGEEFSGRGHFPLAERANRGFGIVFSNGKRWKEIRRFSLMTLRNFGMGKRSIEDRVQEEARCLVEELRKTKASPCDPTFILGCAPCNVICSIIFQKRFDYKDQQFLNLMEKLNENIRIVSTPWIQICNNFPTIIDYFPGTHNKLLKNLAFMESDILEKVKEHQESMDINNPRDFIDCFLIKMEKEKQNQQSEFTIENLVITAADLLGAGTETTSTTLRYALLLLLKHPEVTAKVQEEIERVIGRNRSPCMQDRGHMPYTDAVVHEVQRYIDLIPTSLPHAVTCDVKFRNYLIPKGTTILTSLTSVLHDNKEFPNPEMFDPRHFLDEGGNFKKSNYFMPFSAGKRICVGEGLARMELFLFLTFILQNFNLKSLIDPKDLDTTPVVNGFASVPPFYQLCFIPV
Description: as §5, §6, §7

CYP1A2 = molecular target: T7, CYP1A2 (Homo sapiens, UniProt P05177); assay: Cocktail assay for CYPs in human liver microsomes, phenacetin O-deethylation (1A2); format: biochemical; settings: 10 μM phenacetin, 10 min at 37° C.
T7 construct: 0.1 mg/mL protein human liver microsomes (BD Gentest); tissue BD Gentest; host or cells: human liver microsomes
T7 sequence (P05177 1-516): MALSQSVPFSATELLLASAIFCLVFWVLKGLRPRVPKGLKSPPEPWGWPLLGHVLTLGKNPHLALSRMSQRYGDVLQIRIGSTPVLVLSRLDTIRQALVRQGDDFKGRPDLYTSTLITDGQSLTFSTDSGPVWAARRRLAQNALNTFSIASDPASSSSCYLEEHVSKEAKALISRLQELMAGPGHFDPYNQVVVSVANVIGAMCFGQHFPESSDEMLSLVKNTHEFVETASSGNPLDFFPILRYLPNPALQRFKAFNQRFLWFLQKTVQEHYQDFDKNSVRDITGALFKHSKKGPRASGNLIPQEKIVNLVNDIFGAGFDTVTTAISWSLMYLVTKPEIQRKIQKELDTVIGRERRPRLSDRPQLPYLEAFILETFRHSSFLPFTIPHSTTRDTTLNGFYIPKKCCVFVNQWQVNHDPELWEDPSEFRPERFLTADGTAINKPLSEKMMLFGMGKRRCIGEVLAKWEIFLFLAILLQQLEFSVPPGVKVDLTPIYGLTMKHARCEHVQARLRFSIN
Description: as §5, §6, §7

C[C@@H](c1ccccc1-c1ccc(F)cc1)n1cncc1C(=O)N1CCC(N2CC[C@H](O)[C@@H](F)C2)CC1 [Compound 13]
pIC50 (human CYP11B1): 4.64
pIC50 (CYP3A4): 8.28
pIC50 (human CYP11B2): < 4.30
pIC50 (CYP2D6): < 5.00
pIC50 (CYP2C9): < 5.00
pIC50 (CYP2C19): < 5.00
pIC50 (CYP1A2): < 5.00

C[C@@H](c1ccccc1-c1ccc(F)cc1)n1cncc1C(=O)N1CCC(N2CC[C@@H](O)[C@H](F)C2)CC1 [Compound 14]
pIC50 (human CYP11B1): 4.66
pIC50 (CYP3A4): 8.21
pIC50 (human CYP11B2): < 4.30
pIC50 (CYP2D6): < 5.00
pIC50 (CYP2C9): < 5.00
pIC50 (CYP2C19): < 5.00
pIC50 (CYP1A2): < 5.00

C[C@@H](c1ccccc1-c1ccc(F)cc1)n1cncc1C(=O)N1CCC(N2C[C@@H](O)[C@H](F)C2)CC1 [Compound 15]
pIC50 (human CYP11B1): 4.69
pIC50 (CYP3A4): 8.39
pIC50 (human CYP11B2): < 4.30
pIC50 (CYP2D6): < 5.00
pIC50 (CYP2C9): < 5.00
pIC50 (CYP2C19): < 5.00
pIC50 (CYP1A2): < 5.00

C[C@@H](c1ccccc1-c1ccc(F)cc1)n1cncc1C(=O)N1CCC(N2C[C@H](O)[C@@H](F)C2)CC1 [Compound 16]
pIC50 (human CYP11B1): 4.99
pIC50 (CYP3A4): 8.37
pIC50 (human CYP11B2): 4.61
pIC50 (CYP2D6): < 5.00
pIC50 (CYP2C9): < 5.00
pIC50 (CYP2C19): < 5.00
pIC50 (CYP1A2): < 5.00

C[C@@H]1CN(C2CCN(C(=O)c3cncn3[C@@H](C)c3ccccc3-c3ccc(F)cc3)CC2)CC[C@@H]1O [Compound 17]
pIC50 (human CYP11B1): 4.94
pIC50 (CYP3A4): 8.31
pIC50 (human CYP11B2): 4.50
pIC50 (CYP2D6): 5.07
pIC50 (CYP2C9): < 5.00
pIC50 (CYP2C19): < 5.00
pIC50 (CYP1A2): < 5.00

C[C@@H]1CN(C2CCN(C(=O)c3cncn3[C@@H](C)c3ccccc3-c3ccc(F)cc3)CC2)CC[C@H]1O [Compound 18]
pIC50 (human CYP11B1): < 4.30
pIC50 (CYP3A4): 8.01
pIC50 (human CYP11B2): < 4.30
pIC50 (CYP2D6): < 5.00
pIC50 (CYP2C9): < 5.00
pIC50 (CYP2C19): < 5.00
pIC50 (CYP1A2): < 5.00

C[C@@H](c1ccccc1-c1ccc(F)cc1)n1cncc1C(=O)N1CCC(N2CCC(F)C(O)C2)CC1 (some centres unmarked) [Compound 19]
pIC50 (human CYP11B1): 4.49
pIC50 (CYP3A4): 8.24
pIC50 (human CYP11B2): < 4.30
pIC50 (CYP2D6): < 5.00
pIC50 (CYP2C9): < 5.00
pIC50 (CYP2C19): < 5.00
pIC50 (CYP1A2): < 5.00

C[C@@H](c1ccccc1-c1ccc(F)cc1)n1cncc1C(=O)N1CCC(N2CCNC(=O)C2)CC1 [Compound 20]
pIC50 (human CYP11B1): 4.77
pIC50 (CYP3A4): 8.35
pIC50 (human CYP11B2): 4.51
pIC50 (CYP2D6): < 5.00
pIC50 (CYP2C9): < 5.00
pIC50 (CYP2C19): < 5.00
pIC50 (CYP1A2): < 5.00

Reference: US9981969B2, “Imidazole derivatives and methods of use thereof for improving the pharmacokinetics of a drug” (MERCK SHARP & DOHME CORP., priority 2013, dated 2018)
